This assay concerns CD2F1 mice, P388/ADR leukemia ip, median survival T/C. As to the kind of experiment: NCI In Vivo Anticancer Drug Screen. Data for tumor model P388 Leukemia resistant to Adriamycin; NSC 123127, Developed at Scr 08 (intraperitoneal) in CD2F1 (CDF1) mice. The settings on record: endpoint: median survival time, higher = longer survival. As to the method:
The antitumor activity of compounds was measured in mice bearing transplantable tumors. Survival or tumor size were measured and the results are expressed as the measurement made in the treated group (T) divided by the measurement made in the vehicle treated control group (C). The tumor model used in this assay is P388 Leukemia resistant to Adriamycin; NSC 123127, Developed at Scr 08 (intraperitoneal) in CD2F1 (CDF1) mice

[1] abbreviates: dose: 50.0 mg/kg/injection, schedule: Q01DX005 (ip), vehicle: saline.

These results are taken from PubChem BioAssay AID322 (DTP/NCI, 2004).

Several values for one entry are separate records, joined by “and”; a condition that tells them apart may be missing. Equal entries are not always repeated. Inconclusive results and toxic doses are left out. *1 amine or outer side, *2 acyl side, *3 side chain or, on linkers, in order; H or OH if unused. Where a SMILES comes first, the peptide text is derived from it. Bridges are numbered along the chain shown (N, C = ends). Roman numbers before positions name the chains, in order. [ ]: non-standard residue; d: D form. Actinocin(9to1) = Cc1c2oc3c(C)ccc(C(=O)[*:1])c3nc-2c(C(=O)[*:2])c(N)c1=O; aThr = C[C@H](O)[C@H](N)C(=O)O; NMeV = CN[C@H](C(=O)O)C(C)C; Sar = CNCC(=O)O

In the case of `COc1cc([C@@H]2c3cc4c(cc3[C@@H](OC3OC5COC(C)OC5C(O)C3O)[C@H]3COC(=O)[C@H]23)OCO4)cc(OC)c1O` (stereo not given in full), the T/C is, setting by setting: (dose: 18.0 mg/kg/injection, schedule: Q04DX003 (ip), vehicle: Klucel (hydroxypropylcellulose) (HPC)) 113 % of control; (dose: 27.0 mg/kg/injection, schedule: Q04DX003 (ip), vehicle: Klucel (hydroxypropylcellulose) (HPC)) 119 % of control; (dose: 40.0 mg/kg/injection, schedule: Q04DX003 (ip), vehicle: Klucel (hydroxypropylcellulose) (HPC)) 110 % of control.

As for `COc1cc(C)c(C2NC(=O)c3ccccc3N2)cc1C` (stereo not given), the T/C is 109 % of control (dose: 50.0 mg/kg/injection, schedule: Q01DX005 (ip), vehicle: Klucel (hydroxypropylcellulose) (HPC)); 116 % of control (dose: 100.0 mg/kg/injection, schedule: Q01DX005 (ip), vehicle: Klucel (hydroxypropylcellulose) (HPC)); 113 % of control (dose: 200.0 mg/kg/injection, schedule: Q01DX005 (ip), vehicle: Klucel (hydroxypropylcellulose) (HPC)); 158 % of control (dose: 288.0 mg/kg/injection, schedule: Q01DX005 (ip), vehicle: Klucel (hydroxypropylcellulose) (HPC)); 124 % of control (dose: 400.0 mg/kg/injection, schedule: Q01DX005 (ip), vehicle: Klucel (hydroxypropylcellulose) (HPC)); 153 % of control (dose: 480.0 mg/kg/injection, schedule: Q01DX005 (ip), vehicle: Klucel (hydroxypropylcellulose) (HPC)). For the same compound, the T/C is 155 % of control and 206 % of control (dose: 800.0 mg/kg/injection, schedule: Q01DX005 (ip), vehicle: Klucel (hydroxypropylcellulose) (HPC)); 207 % of control (dose: 1333.0 mg/kg/injection, schedule: Q01DX005 (ip), vehicle: Klucel (hydroxypropylcellulose) (HPC)).

Consider `NCCCN=c1ccc2c3c1c(O)c1c(O)ccc(=O)c1c3[nH]n2CCNCCO`, for which the T/C (dose: 25.0 mg/kg/injection, schedule: Q01DX001 (ip), vehicle: water) was 107 % of control.

As for `Cc1c2oc3c(C)ccc(C(=O)N[C@@H]4C(=O)N[C@H](C(C)C)C(=O)N5CCC[C@H]5C(=O)N(C)CC(=O)N(C)[C@@H](C(C)C)C(=O)O[C@H]4C)c3nc-2c(C(=O)N[C@@H]2C(=O)N[C@H](C(C)C)C(=O)N3CCC[C@H]3C(=O)N(C)CC(=O)N(C)[C@@H](C(C)C)C(=O)O[C@H]2C)c(N)c1=O` (I: [aThr][dV]P[Sar][NMeV] / II: [aThr][dV]P[Sar][NMeV]; ester I:1-I:C, II:1-II:C; linker I:N-II:N via Actinocin(9to1)), the T/C (dose: 25.0 micrograms/kg/injection, schedule: Q01DX005 (ip), vehicle: saline + alcohol) is 124 % of control; the T/C (dose: 50.0 micrograms/kg/injection, schedule: Q01DX005 (ip), vehicle: saline + alcohol) is 120 % of control; the T/C (dose: 100.0 micrograms/kg/injection, schedule: Q01DX005 (ip), vehicle: saline + alcohol) is 101 % of control.

Turning to `CO[C@H](/C(C)=C/C=C/C(C)=C/c1coc(C)n1)[C@H](C)[C@H]1C[C@@H](O)[C@@]2(C)O[C@H]2/C=C/[C@@H](C)[C@@H]2C[C@@H](CC(=O)O2)C[C@H]2O[C@@H]2C(=O)O1`, the T/C is 105 % of control (dose: 0.04 mg/kg/injection, schedule: Q01DX005 (ip), vehicle: Klucel (hydroxypropylcellulose) (HPC)); 109 % of control and 113 % of control (dose: 0.06 mg/kg/injection, schedule: Q01DX005 (ip), vehicle: Klucel (hydroxypropylcellulose) (HPC)); 114 % of control (dose: 0.08 mg/kg/injection, schedule: Q01DX005 (ip), vehicle: Klucel (hydroxypropylcellulose) (HPC)); 112 % of control (dose: 0.09 mg/kg/injection, schedule: Q01DX005 (ip), vehicle: Klucel (hydroxypropylcellulose) (HPC)); 117 % of control (dose: 0.1 mg/kg/injection, schedule: Q01DX005 (ip), vehicle: Klucel (hydroxypropylcellulose) (HPC)); 97 % of control (dose: 0.12 mg/kg/injection, schedule: Q01DX005 (ip), vehicle: Klucel (hydroxypropylcellulose) (HPC)). Moreover, the T/C is, setting by setting: (dose: 0.13 mg/kg/injection, schedule: Q01DX005 (ip), vehicle: Klucel (hydroxypropylcellulose) (HPC)) 109 % of control; (dose: 0.14 mg/kg/injection, schedule: Q01DX005 (ip), vehicle: Klucel (hydroxypropylcellulose) (HPC)) 96 % of control; (dose: 0.16 mg/kg/injection, schedule: Q01DX005 (ip), vehicle: Klucel (hydroxypropylcellulose) (HPC)) 107 % of control; (dose: 0.2 mg/kg/injection, schedule: Q01DX005 (ip), vehicle: Klucel (hydroxypropylcellulose) (HPC)) 102 % of control.

For `N[C@@H](Cc1c[nH]c2ccccc12)C(=O)Nc1nncs1`, the T/C by setting is: (dose: 18.75 mg/kg/injection, schedule: Q01DX005 (ip), vehicle: saline) 99 % of control; (dose: 37.5 mg/kg/injection, schedule: Q01DX005 (ip), vehicle: saline) 96 % of control; (dose: 75.0 mg/kg/injection, schedule: Q01DX005 (ip), vehicle: saline) 90 % of control; (dose: 150.0 mg/kg/injection, schedule: Q01DX005 (ip), vehicle: saline) 92 % of control; (dose: 300.0 mg/kg/injection, schedule: Q01DX005 (ip), vehicle: saline) 96 % of control.

Consider `NCCCNCCCCNC(=O)C(O)NC(=O)CCCCCCN=C(N)N` (stereo not given), for which the T/C is 195 % of control (dose: 4.4 mg/kg/injection, schedule: Q01DX009 (ip), vehicle: other); 193 % of control (dose: 4.4 mg/kg/injection, schedule: Q01DX009 (ip), vehicle: saline); 195 % of control (dose: 6.7 mg/kg/injection, schedule: Q01DX009 (ip), vehicle: other); 198 % of control (dose: 6.7 mg/kg/injection, schedule: Q01DX009 (ip), vehicle: saline); 205 % of control (dose: 10.0 mg/kg/injection, schedule: Q01DX009 (ip), vehicle: other); 206 % of control (dose: 10.0 mg/kg/injection, schedule: Q01DX009 (ip), vehicle: saline). Besides, the T/C was 209 % of control (dose: 15.0 mg/kg/injection, schedule: Q01DX009 (ip), vehicle: other); 212 % of control (dose: 15.0 mg/kg/injection, schedule: Q01DX009 (ip), vehicle: saline); 162 % of control (dose: 22.5 mg/kg/injection, schedule: Q01DX009 (ip), vehicle: other); 219 % of control (dose: 22.5 mg/kg/injection, schedule: Q01DX009 (ip), vehicle: saline).

As for `CCCCCCCCCCCCN1C(C)=CS/C1=C\C=C\c1scc(C)[n+]1CCCCCCCCCCCC`, the T/C reads like this: (dose: 0.75 mg/kg/injection, schedule: Q01DX005 (ip), vehicle: saline with Tween-80) 123 % of control; (dose: 1.5 mg/kg/injection, schedule: Q01DX005 (ip), vehicle: saline with Tween-80) 117 % of control; (dose: 3.0 mg/kg/injection, schedule: Q01DX005 (ip), vehicle: saline with Tween-80) 109 % of control.

For the compound `CCOc1ccc(C(C)c2cc3c(cc2OC)OCO3)cc1` (stereo not given), the T/C runs as follows: (dose: 25.0 mg/kg/injection, schedule: Q01DX005 (ip), vehicle: distilled water + Tween-80) 110 % of control; (dose: 50.0 mg/kg/injection, schedule: Q01DX005 (ip), vehicle: distilled water + Tween-80) 100 % of control; (dose: 72.0 mg/kg/injection, schedule: Q01DX005 (ip), vehicle: distilled water + Tween-80) 117 % of control; (dose: 100.0 mg/kg/injection, schedule: Q01DX005 (ip), vehicle: distilled water + Tween-80) 113 % of control; (dose: 120.0 mg/kg/injection, schedule: Q01DX005 (ip), vehicle: distilled water + Tween-80) 118 % of control; (dose: 200.0 mg/kg/injection, schedule: Q01DX005 (ip), vehicle: distilled water + Tween-80) 167 % of control and 184 % of control. Moreover, where the note is “dose: 333.33 mg/kg/injection, schedule: Q01DX005 (ip), vehicle: distilled water + Tween-80”, the T/C is 165 % of control and 176 % of control.

Consider `CNC(=O)OCc1nc(SC)n(C)c1COC(=O)NC`, for which the T/C was 155 % of control (dose: 30.0 mg/kg/injection, schedule: Q01DX005 (ip), vehicle: saline); 154 % of control (dose: 40.0 mg/kg/injection, schedule: Q01DX005 (ip), vehicle: saline); 158 % of control under setting [1]; 163 % of control (dose: 51.0 mg/kg/injection, schedule: Q01DX005 (ip), vehicle: saline); 155 % of control (dose: 65.0 mg/kg/injection, schedule: Q01DX005 (ip), vehicle: saline); 91 % of control (dose: 77.0 mg/kg/injection, schedule: Q01DX005 (ip), vehicle: saline).

As to `O=P1(N(CCCl)CCCl)NCCCO1` (stereo not given), the T/C runs as follows: (dose: 12.5 mg/kg/injection, schedule: Q01DX005 (ip), vehicle: saline) 154 % of control; (dose: 25.0 mg/kg/injection, schedule: Q01DX005 (ip), vehicle: saline) 165 % of control and 189 % of control; under setting [1], 191 % of control and 217 % of control; (dose: 100.0 mg/kg/injection, schedule: Q01DX005 (ip), vehicle: saline) 171 % of control and 309 % of control.
